Structures can show the parent of a compound that is named as a salt.
Target: T1, human hNET (Homo sapiens, UniProt P23975)
T1 construct: expressed in transfected cells
Test: Norepinephrine (NE) uptake assay
Assay type: cell-based
Conditions: 1 μM test compound; MDCK-Net6 cells stably transfected with human hNET; [3H]NE uptake
Description: MDCK-Net6 cells, stably transfected with human hNET (Pacholczyk, T., R. D. Blakely, and S. G. Amara, Nature, 1991, 350(6316): p. 350-4) were cultured in growth medium containing high glucose DMEM (Gibco, Cat. No. 11995), 10% FBS (dialyzed, heat-inactivated, US Bio-Technologies, Lot FBD1129HI) and 500 µg/ml G418 (Gibco, Cat. No. 10131). Cells were plated at 300,000/T75 flask and cells were split twice weekly. The JAR cell line (human placental choriocarcinoma) was purchased from ATCC (Cat. No. HTB-144). The cells were cultured in growth medium containing RPMI 1640 (Gibco, Cat. No. 72400), 10% FBS (Irvine, Cat. No. 3000), 1% sodium pyruvate (Gibco, Cat. No. 1136) and 0.25% glucose. Cells were plated at 250,000 cells/T75 flask and split twice weekly. For all assays, cells were plated in Wallac 96-well sterile plates (PerkinElmer, Cat. No. 3983498).
On day 1, cells were plated at 3,000 cells/well in growth medium and maintained in a cell incubator (37° C., 5% CO2). On day 2, growth medium was replaced with 200 μl of assay buffer (25 mM HEPES; 120 mM NaCl; 5 mM KCl; 2.5 mM CaCl2; 1.2 mM MgSO4; 2 mg/ml glucose (pH 7.4, 37° C.)) containing 0.2 mg/ml ascorbic acid and 10 μM pargyline. Plates containing cells with 200 μl of assay buffer were equilibrated for 10 minutes at 37° C. prior to addition of compounds. A stock solution of desipramine was prepared in DMSO (10 mM) and delivered to triplicate wells containing cells for a final test concentration of 1 μM. Data from these wells were used to define non-specific NE uptake (minimum NE uptake). Test compounds were prepared in DMSO (10 mM) and diluted in assay buffer according to test range (1 to 10,000 nM). Twenty-five microliters of assay buffer (maximum NE uptake) or test compound were added directly to triplicate wells containing cells in 200 μl of assay buffer. The cells in assay buffer with test compounds were incubated for 20 minutes at 37° C. To initiate the NE uptake, [^3H]NE diluted in assay buffer (120 nM final assay concentration) was delivered in 25 μl aliquots to each well and the plates were incubated for 5 minutes (37° C.). The reaction was terminated by decanting the supernatant from the plate. The plates containing cells were washed twice with 200 μl assay buffer (37° C.) to remove free radioligand. The plates were then inverted, left to dry for 2 minutes, then reinverted and air-dried for an additional 10 minutes. The cells were lysed in 25 μl of 0.25 N NaOH solution (4° C.), placed on a shake table and vigorously shaken for 5 minutes. After cell lysis, 75 μl of scintillation cocktail was added to each well and the plates were sealed with film tape. The plates were returned to the shake table and vigorously shaken for a minimum of 10 minutes to ensure adequate partitioning of organic and aqueous solutions. The plates were counted in a Wallac Microbeta counter (PerkinElmer) to collect the raw cpm data.
For each experiment, a data stream of cpm values collected from the Wallac Microbeta counter was downloaded to a Microsoft Excel statistical application program. Calculations of EC50 values were made using the transformed-both-sides logistic dose response program written by Wyeth Biometrics Department. The statistical program uses mean cpm values from wells representing maximum binding or uptake (assay buffer) and mean cpm values from wells representing minimum binding or uptake ((1 μM desipramine (hNET) or 1 μM paroxetine (hSERT)). Estimation of the EC50 value was completed on a log scale and the line was fit between the maximum and minimum binding or uptake values. All graphic data representation was generated by normalizing each data point to a mean percent based on the maximum and minimum binding or uptake values. The EC50 values reported from multiple experiments were calculated by pooling the raw data from each experiment and analyzing the pooled data as one experiment.

T1 sequence (P23975 whole entry): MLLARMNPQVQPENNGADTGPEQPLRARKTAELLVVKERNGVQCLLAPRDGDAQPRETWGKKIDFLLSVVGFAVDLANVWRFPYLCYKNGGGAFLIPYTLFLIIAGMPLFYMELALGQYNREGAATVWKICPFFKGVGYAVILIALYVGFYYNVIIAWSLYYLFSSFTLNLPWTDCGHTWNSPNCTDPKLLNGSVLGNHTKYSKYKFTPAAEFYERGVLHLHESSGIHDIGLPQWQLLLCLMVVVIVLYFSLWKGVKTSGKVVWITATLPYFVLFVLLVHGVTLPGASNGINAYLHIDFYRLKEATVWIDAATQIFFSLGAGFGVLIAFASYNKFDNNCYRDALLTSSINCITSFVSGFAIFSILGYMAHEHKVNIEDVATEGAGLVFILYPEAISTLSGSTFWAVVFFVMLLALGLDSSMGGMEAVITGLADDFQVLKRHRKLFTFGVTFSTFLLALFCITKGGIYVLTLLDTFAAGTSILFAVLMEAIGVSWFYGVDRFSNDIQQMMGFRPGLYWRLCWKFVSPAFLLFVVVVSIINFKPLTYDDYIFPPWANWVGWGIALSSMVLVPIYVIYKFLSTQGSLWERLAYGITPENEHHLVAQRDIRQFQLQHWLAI

inhibition at 1 µM [%]	Compound
10	CNC[C@@H](O)[C@H](c1cccc(F)c1)N1CC(C)(C)Oc2ccccc21 [Example 16, (1S,2R)-1-(2,2-dimethyl-2,3-dihydro-4H-1,4-benzoxazin-4-yl)-1-(3-fluorophenyl)-3-(methylamino)propan-2-ol hydrochloride]
41.5	CNC[C@H](O)[C@@H](c1ccccc1)N1CCOc2ccc(Cl)cc21 (single isomer, unassigned) [Example 14, hydrochloride]
12.5	CNC[C@@H](O)[C@H](c1cc(F)cc(F)c1)N1CCOc2ccc(Cl)cc21 [Example 8, (1S,2R)-1-(6-chloro-2,3-dihydro-4H-1,4-benzoxazin-4-yl)-1-(3,5-difluorophenyl)-3-(methylamino)propan-2-ol hydrochloride]
60.6	CNC[C@@H](O)[C@H](c1ccccc1)N1CCOc2ccc(Cl)cc21 (racemic) [Example 11, (1RS,2SR)-1-(6-chloro-2,3-dihydro-4H-1,4-benzoxazin-4-yl)-3-(methylamino)-1-phenylpropan-2-ol hydrochloride]
38.6	CNC[C@@H](O)[C@H](c1ccccc1)N1CCOc2ccc(Cl)cc21 (single isomer, unassigned) [Example 13, hydrochloride]
41.4	CNC[C@@H](O)[C@H](c1cccc(F)c1)N1CCOc2ccc(Cl)cc21 [Example 15, (1S,2R)-1-(6-chloro-2,3-dihydro-4H-1,4-benzoxazin-4-yl)-1-(3-fluorophenyl)-3-(methylamino)propan-2-ol hydrochloride]
9.3	CNC[C@@H](O)[C@H](c1ccccc1)N1CC(C)(C)Oc2ccccc21 [Example 17, (1S,2R)-1-(2,2-dimethyl-2,3-dihydro-4H-1,4-benzoxazin-4-yl)-3-(methylamino)-1-phenylpropan-2-ol hydrochloride]
97.2	CNC[C@@H](O)[C@H](c1cccc(F)c1)N1C[C@@H](c2ccccc2)Oc2ccccc21 (single isomer, unassigned) [Example 20, hydrochloride]
52.9	CNC[C@@H](O)[C@H](c1ccccc1)N1CCN(CC(F)(F)F)c2ccccc21 (racemic) [Example 5, (1SR,2RS)-3-(methylamino)-1-phenyl-1-[4-(2,2,2-trifluoroethyl)-3,4-dihydroquinoxalin-1(2H)-yl]propan-2-ol hydrochloride]
95	CNC[C@@H](O)[C@H](c1cccc(F)c1)N1CC(c2ccccc2)Oc2ccccc21 (stereo partly drawn) [Example 19, (1S,2R)-1-(3-fluorophenyl)-3-(methylamino)-1-(2-phenyl-2,3-dihydro-4H-1,4-benzoxazin-4-yl)propan-2-ol hydrochloride]
46.2	CNC[C@@H](O)[C@H](c1ccccc1)N1CCN(C)c2ccccc21 (racemic) [Example 4, (1SR,2RS)-3-(methylamino)-1-(4-methyl-3,4-dihydroquinoxalin-1(2H)-yl)-1-phenylpropan-2-ol hydrochloride]
3.4	CNC[C@@H](O)[C@H](c1ccccc1)N1CCOc2ccc(C)cc21 (racemic) [Example 12, (1RS,2SR)-3-(methylamino)-1-(6-methyl-2,3-dihydro-4H-1,4-benzoxazin-4-yl)-1-phenylpropan-2-ol hydrochloride]
33.7	CNC[C@@H](O)[C@H](c1ccccc1)N1CCOc2ccccc21 (racemic) [Example 2, (1RS,2SR)-1-(2,3-dihydro-4H-1,4-benzoxazin-4-yl)-3-(methylamino)-1-phenylpropan-2-ol dihydrochloride]
51.7	CNC[C@@H](O)[C@H](c1cccc(F)c1)N1C[C@H](c2ccccc2)Oc2ccccc21 (single isomer, unassigned) [Example 21, hydrochloride]
53.9	CNC[C@@H](O)[C@H](c1cccc(F)c1)N1CC(C)Oc2ccccc21 (stereo partly drawn) [Example 9, (1S,2R)-1-(3-fluorophenyl)-3-(methylamino)-1-(2-methyl-2,3-dihydro-4H-1,4-benzoxazin-4-yl)propan-2-ol hydrochloride]
90.4	CNC[C@@H](O)[C@H](c1cccc(F)c1)N1CCSc2ccccc21 [Example 18, (1S,2R)-1-(2,3-dihydro-4H-1,4-benzothiazin-4-yl)-1-(3-fluorophenyl)-3-(methylamino)propan-2-ol hydrochloride]
